The results in this text go back to the NIST ThermoML archive (doi:10.1016/j.fluid.2018.01.017).

Numbers after ± are expanded uncertainties.

The nature of data set [1]: refractive index (Na D-line) (dimensionless); xn = mol fraction of the nth substance listed. Particulars: 298.15 K, 86.6 kPa, Liquid, Standard Abbe refractometry.
Data set [2] can be described thus: xn = mol fraction of the nth substance listed. Particulars: 298.15 K, 86.6 kPa, Liquid; for speed of sound: Anton Parr, DSA 5000 densimeter and speed of sound analyzer; for mass density: Vibrating tube method.

As for `O=C(O)C(=O)O` [ethanedioic acid] + C[N+](C)(C)CCO.[Cl-], the refractive index in data set [1] (x2 = 0.5) is reported as 1.4809 ± 0.0005. For the same compound, in data set [2] (x2 = 0.5), the speed of sound amounted to 1925 ± 1.7 m/s and the mass density is 1210.93 ± 0.5 kg/m3.
Consider `O=C(O)CC(=O)O` [propanedioic acid] + C[N+](C)(C)CCO.[Cl-], for which the refractive index in data set [1] (x2 = 0.5) came to 1.4887 ± 0.0005. Also, in data set [2] (x2 = 0.5), the speed of sound is given as 1962.7 ± 1.7 m/s and the mass density is listed as 1251.47 ± 0.54 kg/m3.
`NC(N)=O` [urea] + C[N+](C)(C)CCO.[Cl-]: in data set [1] (x2 = 0.333), the refractive index was 1.5041 ± 0.0006. In data set [2] (x2 = 0.333), the speed of sound is recorded as 2062.3 ± 2.2 m/s and the mass density is listed as 1193.93 ± 0.94 kg/m3.
